Source: patent US10624875B2, “Methods and compositions for treating schizophrenia” (The Johns Hopkins University, priority 2012, dated 2020)

Tests used:
[1] = tested on: Age-Impaired (AI) Long-Evans rats; assay: Morris Water Maze (MWM) retention trial, spatial memory; format: in vivo, rat; conditions: retention trial 24 hours after two training days
Method: The MWM apparatus consists of a large, circular pool (diameter 1.83 m; height, 0.58 m) filled with water (27° C.) that is made opaque through the addition of non-toxic pigment or some other substance. In the typical “hidden platform” version of the test, rats are trained to find a camouflaged white escape platform (height, 34.5 cm) that is positioned in the center of one quadrant of the maze about 1.0 cm below the water surface. This platform can be retracted to the bottom of the tank or raised to its normal position from outside the maze during behavioral testing. The location of the platform remains constant from trial to trial. Because there are no local cues that mark the position of the platform, the rat's ability to locate it efficiently from any starting position at the perimeter of the pool depends on using information surrounding the maze. The maze is surrounded by black curtains to which white patterns are affixed to provide a configuration of spatial cues. A second platform (height 37.5 cm), with its surface painted black is elevated 2 cm above the water surface during cue training to control for factors unrelated to cognition. The behavior of a rat in the pool is recorded by a camera that is suspended 2.5 m above the center of the pool. […] At the completion of the protocol using the hidden platform, rats are assessed for cue learning using the visible platform. […]

[2] = tested on: aMCI subjects; assay: explicit 3-alternative forced choice task (lure images), cognitive performance; format: in vivo, human; conditions: 125 mg twice a day for two weeks, versus placebo
From the text: There are various tests known in the art for assessing cognitive function in humans, for example and without limitation, the clinical global impression of change scale (CIBIC-plus scale); the Mini Mental State Exam (MMSE); the Neuropsychiatric Inventory (NPI); the Clinical Dementia Rating Scale (CDR); the Cambridge Neuropsychological Test Automated Battery (CANTAB); the Sandoz Clinical Assessment-Geriatric (SCAG), the Buschke Selective Reminding Test (Buschke and Fuld, 1974); the Verbal Paired Associates subtest; the Logical Memory subtest; the Visual Reproduction subtest of the Wechsler Memory Scale-Revised (WMS-R) (Wechsler, 1997); the Benton Visual Retention Test, or MATRICS consensus neuropsychological test battery which includes tests of working memory, speed of processing, attention, verbal learning, visual learning, reasoning and problem solving and social cognition. […]
As described above, the drug treatment period is the two weeks preceding Visit 1 or 2 (with the two week period preceding the other Visit being the placebo phase). For the subjects receiving the drug treatment, half a scored 250 mg tablet of levetiracetam is used to achieve a dose of […], which is approximately 3.6 mg/kg/day (assuming an average adult human weight of 70 kg). […]

SMILES: CC[C@@H](C(N)=O)N1CCCC1=O [levetiracetam, (2S)-2-(2-oxopyrrolidin-1-yl) butanamide]
- time spent in the target quadrant versus vehicle-treated controls ([1]; 5 mg/kg/day i.p.): did not significantly improve
- time spent in the target annulus ([1]; 10 mg/kg/day i.p.): effectiveness of the 10 mg/kg/day levetiracetam treatment was also seen
- performance in the explicit 3-alternative forced choice task [2]: improves significantly
